In patent US20200155434A1, “SKIN CLEANSING COMPOSITION” (KAO CORPORATION, priority 2017, published 2020):

Assays:
[1] = Detergency against keratotic plug after washing with water; set-up: species or system human; conditions: sample substituted with water; Table 1 samples
Protocol: After one minute from the contact of the keratotic plugs with the sample, Kimwipes (registered trademark) was brought into contact with an edge of the cover glass to remove the sample under the cover glass. Then, 0.05 mL of water was gradually dropwise added to an edge of the cover glass. The sample dropwise-added with water was recorded with the digital microscope, and the collapse state of the keratotic plugs was evaluated after one minute from the contact of the keratotic plugs with water according to the criteria for evaluating collapsibility of the keratotic plugs. The results of the evaluation are shown in the column “Keratotic plug detergency (during washing with water)” in Table. The measurements were performed at 25° C.

[2] = Detergency against keratotic plug during cleansing (penetration and collapse under digital microscope); set-up: species or system human; conditions: Table 1 samples; for Collapse of keratotic plugs in contact with the sample (in words): assumption of cleansing; for Penetration of the sample into keratotic plugs (in words): contact with sample for 1 minute
Protocol: Keratotic plugs in the nasal region were removed with “Biore Nose Pack (manufactured by Kao Corporation)”, the resulting keratotic plugs on the pack were gently taken out with tweezers.
The resulting keratotic plugs were placed on a slide glass and were covered with a cover glass, and 0.05 mL of a sample was dropwise added to an edge of the cover glass. Consequently, the sample entered into the gap between the slide glass and the cover glass by capillary phenomenon and was brought into contact with the keratotic plugs. The contact of the keratotic plugs and the sample was recorded with a digital microscope (VHX-5000, manufactured by Keyence Corporation, magnification: 150×), and the penetration of the sample into the keratotic plugs and the collapse state of the keratotic plugs were evaluated after one minute from the contact of the keratotic plugs with the sample. The results of each evaluation are shown in the columns “Keratotic plug detergency (penetration)” and “Keratotic plug detergency (during cleansing)” in Tables. The measurements were performed at 25° C.
The penetration was relatively evaluated by criteria with 11 ratings starting from the rating 1 “the sample hardly penetrated into the keratotic plug” to the rating 11 “the sample penetrated to the center of the keratotic plug”. The collapsibility by the detergency against keratotic plug was relatively evaluated by criteria with 11 ratings starting from the rating 1 “almost no change is observed in the external appearance of the keratotic plug” to the rating 11 “peeling or separation is observed in the area from the surface layer to the central portion of the keratotic plug (the initial appearance of the keratotic plug is not retained)”.

[3] = at 25° C.; cited from earlier work
[4] = cited from earlier work
[5] = tested on: insoluble protein (seine protein); assay: Effect of suppressing protein aggregation; format: physicochemical; conditions: Table 1 sample
Protocol: Thirty milliliters of a sample and 0.06 g of an insoluble protein (seine protein) were placed in a 35-mL standard glass bottle, and the concentration of the insoluble protein was adjusted to 0.2 mass % (test sample). Separately, a standard sample was prepared by using water instead of the sample and adjusting the concentration of the insoluble protein to 0.2 mass %. Subsequently, the standard glass bottles were sufficiently shaken and stirred up and down (shake width: 15 cm, 20 times at a rate of 5 times for 3 seconds) in a thermostatic chamber of 25° C. and were left to stand for 3 minutes. The precipitation state of the insoluble protein was then visually verified, and the ratio of the amount of the precipitated standard sample to the amount of the precipitated test sample (the height of the precipitate in each standard glass bottle was measured as the precipitation amount), (precipitation amount of standard sample)/(precipitation amount of test sample), was calculated. A higher ratio indicates a higher effect of suppressing protein aggregation.

Row | Compound | Collapse of keratotic plugs during washing with water (in words) [1] | Collapse of keratotic plugs in contact with the sample (in words) [2] | Penetration of the sample into keratotic plugs (in words) [2] | pKa [3] | Solubility in water (in words) [4] | Action on proteins (in words) [5]
1 | O=P([O-])([O-])O.[Na+].[Na+] [disodium hydrogen phosphate] | collapse of keratotic plugs did not progress | collapse of the keratotic plugs did not progress | hardly penetrated into keratotic plugs | – | – | –
2 | CC(N)(CO)CO [AMPD, 2-amino-2-methyl-1,3-propanediol] | – | – | – | 8.76 | – | –
3 | CC(C)(N)CO [AMP, 2-amino-2-methyl-1-propanol] | – | – | – | 9.72 | readily dissolved in water | –
4 | O=C([O-])O.[Na+] [sodium hydrogen carbonate] | collapse of keratotic plugs did not progress | collapse of the keratotic plugs did not progress | hardly penetrated into keratotic plugs | – | – | –
5 | sodium polyoxyethylene (2) lauryl ether sulfate [POE (2) sodium lauryl sulfate] | – | collapse of the keratotic plugs did not progress | hardly penetrated into the keratotic plugs | – | – | dissolve the proteins
6 | NC(CO)(CO)CO [Tris, 2-amino-2-hydroxymethyl-1,3-propanediol] | further accelerating the collapse of keratotic plugs | – | penetrated into keratotic plugs | 8.03 | readily dissolved in water | –
7 | O=P([O-])([O-])[O-].[Na+].[Na+].[Na+] [trisodium phosphate] | collapse of keratotic plugs did not progress | collapse of the keratotic plugs did not progress | hardly penetrated into keratotic plugs | – | – | –
